{"source": "patent US20210161890A1", "about": "“COMPOSITIONS AND METHODS FOR TREATING BRAIN DYSFUNCTION” (BACH PHARMA, INC., priority 2015, published 2021)", "key": {"[1]": {"system": "inflammatory cytokines in hippocampal tissues of GWI rats", "details": "hippocampal tissue", "method": "(§1) Time-line of various procedures for animals in cohorts 1 and 2: Animals were exposed daily to GWIR-chemicals and stress for 28 days, and were subjected to a survival period of 4 months between exposure and treatment. The animals were then treated 5 times a week with 5-amino-2,3-dihydro-1,4-phthalazinedione or VEH for 8 weeks. […] Finally, euthanasia and tissue harvesting was performed after 8 weeks of treatment.\n(§2) Exposure of animals to GWIR-chemicals and stress: Animals were exposed daily to the following chemicals for 28 days: pyridostigmine bromide (PB) at 2 mg/kg/day (via oral gavage), DEET at 60 mg/kg/day (via dermal application) and permethrin at 0.2 mg/kg/day (via dermal application). In addition, animals were subjected daily to 15 minutes of restraint stress using rat restrainers during the above 28-day period.\n(§3) Survival period between exposure and treatment: Following the exposure to GMIR chemicals and stress, animals were maintained in the vivarium for four months in regular cages (two per cage) with ad libitum access to food and water. Administration of 5-amino-2,3-dihydro-1,4-phthalazinedione or VEH: Treatment was given for 8 weeks (5 times/week) via oral gavage, commencing in the 5th month after exposure to GMIR chemicals and stress. The doses of 5-amino-2,3-dihydro-1,4-phthalazinedione employed were 40 mg/kg, 80 mg/kg and 160 mg/kg.\nAnalyses of inflammation: The hippocampal tissues obtained from animals belonging to cohort 1 were also used to measure the relative levels of inflammatory cytokines in different groups of animals. We employed the Rat Cytokine Plate Array from Signosis, which facilitated analyses of 16 rat cytokines in a high-throughput manner. The cytokines included: tumor necrosis factor-alpha (TNF-α), interleukin=1 alpha (IL-1α), interleukin-1 beta (IL-1β), vascular endothelial growth factor (VEGF), fibroblast growth factor beta (FGFβ), interferon gamma (IFNγ), interleukin=5 (IL-5), interleukin=6 (IL-6), interleukin=15 (IL-15), leptin, monocyte chemoattractant protein=1 (MCP-1), IFN-gamma-inducible protein 10 (IP-10 or CXCL10), stem cell factor (SCF), Regulated on Activation, Normal T Cell Expressed and Secreted (Rantes), Macrophage inflammatory protein 1 alpha (MIP-1α) and transforming growth factor-beta (TGFβ).\nAnalyses of inflammation: The hippocampal tissues obtained from animals were used for measurement of the relative levels of inflammatory cytokines in different groups of animals. We employed “The Rat Cytokine Plate Array” from Signosis, which facilitated analyses of 16 rat cytokines in a high-throughput manner. The cytokines included: TNF-α, IL-1α, IL-1β, VEGF, FGFβ, , IFNγ, IL-5, IL-6, IL-15, leptin, MCP-1, IP-10 (or CXCL10), SCF, Rantes, MIP-1α and TGFβ."}, "[2]": {"system": "GWI rats", "details": "for pattern separation ability (exploration of novel vs familiar object on P2): GWI rats", "method": "The animals were then treated 5 times a week with 5-amino-2,3-dihydro-1,4-phthalazinedione or VEH for 8 weeks. […] The animals are then subjected to cognitive and mood function tests starting from the fifth week of treatment.\n(§4) Administration of 5-amino-2,3-dihydro-1,4-phthalazinedione or VEH: Treatment was given for 8 weeks (5 times/week) via oral gavage, commencing in the 5th month after exposure to GMIR chemicals and stress. The doses of 5-amino-2,3-dihydro-1,4-phthalazinedione employed were 40 mg/kg, 80 mg/kg and 160 mg/kg.\n(§5) Behavioral tests for assessing cognitive and mood function: We examined animals in all groups through stress-free behavioral tests. We used a Pattern Separation Test (PST) to assess cognitive function and a Sucrose Preference Test (SPT) to assess mood function.\nIn this test, each rat successively explored two different sets of identical objects (object types 1 and 2) placed on distinct types of floor patterns (Patterns 1 and 2 [P1 and P2]) for 5 minutes each in the two acquisition trials (separated by 30 minutes). Thirty minutes later, in the testing phase (Trial-3), each rat explored an object from trial 2 (which is now a familiar object) and an object from Trial-1 (which is now a novel object) placed on the floor pattern employed in trial 2 (P2).\nFIGS. 1B-1F compare percentages of object exploration time spent with the familiar object on pattern 2 (Fa on P2) and the novel object on pattern 2 (NO of P2) in different animal groups (n=11-14/group)."}, "[3]": {"system": "oxidative stress response and antioxidant genes in the hippocampus of GWI rats", "method": "The animals were then treated 5 times a week with 5-amino-2,3-dihydro-1,4-phthalazinedione or VEH for 8 weeks. […] Finally, euthanasia and tissue harvesting was performed after 8 weeks of treatment.\nas §4\nAnalyses of oxidative stress: The hippocampal tissues obtained from animals belonging to cohort 1 were used for the following measurements. First, we analyzed the oxidative stress response and the expression of antioxidant genes using the Rat Oxidative Stress Response PCR Array from Qiagen. We analyzed the expression of 84 key genes involved in oxidative stress response and antioxidant activity in the hippocampus of animals belonging to different groups using quantitative real time PCR (qRT-PCR) to ascertain the effects of 5-amino-2,3-dihydro-1,4-phthalazinedione treatment on oxidative stress.\n(i) Expression of oxidative stress response and antioxidant genes: We analyzed the expression of 84 key genes involved in oxidative stress response and antioxidant activity in the hippocampus of animals belonging to different groups using quantitative real time PCR (qRTPCR)."}, "[4]": {"system": "GWI rats", "method": "Time-line of various procedures for animals in cohorts 1 and 2: Animals were exposed daily to GWIR-chemicals and stress for 28 days, and were subjected to a survival period of 4 months between exposure and treatment. The animals were then treated 5 times a week with 5-amino-2,3-dihydro-1,4-phthalazinedione or VEH for 8 weeks. […] The animals are then subjected to cognitive and mood function tests starting from the fifth week of treatment. Finally, euthanasia and tissue harvesting was performed after 8 weeks of treatment.\nas §2, §3, §5\nThis test comprised four days of monitoring. On day 1, rats were housed individually and given free access to two identical bottles containing 1% sucrose solution. Rats were trained to adapt to sucrose solution for 24 hours. On day 2, one bottle was replaced with a new bottle containing regular water for 24 hours. On day 3, rats were deprived of water and food for 23 hours, and then on day 4, rats were given free access to two bottles: one containing 100 ml of sucrose solution and another containing 100 ml of regular vyater. An hour later, the consumed volume in both bottles was recorded."}, "[5]": {"system": "GWI rats", "details": "hippocampal tissue extracts", "method": "as §1, §2\nSurvival period between exposure and treatment: Following the exposure to GMIR chemicals and stress, animals were maintained in the vivarium for four months in regular cages (two per cage) with ad libitum access to food and water. […]\nAnalyses of oxidative stress: The hippocampal tissues obtained from animals belonging to cohort 1 were used for the following measurements. […] Second, we measured lipid peroxidation through quantification of malondialdehyde. […]"}, "[6]": {"details": "GWI + MSL 40 mg/Kg, oral gavage 5 times/week for 8 weeks"}, "[7]": {"details": "column headed GWI + MSL 160 mg/Kg, oral gavage 5 times/week for 8 weeks"}, "[8]": {"details": "last treatment column, head prints no dose, oral gavage 5 times/week for 8 weeks"}}, "note": "Structures can show the parent of a compound that is named as a salt. Where two headings read alike, the source gives them in different places.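 Wherever FGF-beta Mean ± S.E.M. is given: relative cytokine levels by 16-cytokine plate array in hippocampus of rats given 28 days of GWI-related chemicals plus restraint stress, treated after a 4-month interval, tissue harvested after 8 weeks.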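 Wherever IFN-gamma Mean ± S.E.M. is given: relative cytokine levels by 16-cytokine plate array in hippocampus of rats given 28 days of GWI-related chemicals plus restraint stress, treated after a 4-month interval, tissue harvested after 8 weeks.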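 Wherever IL-1 beta Mean ± S.E.M. is given: relative cytokine levels by 16-cytokine plate array in hippocampus of rats given 28 days of GWI-related chemicals plus restraint stress, treated after a 4-month interval, tissue harvested after 8 weeks.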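 Wherever IL-1alpha Mean ± S.E.M. is given: relative cytokine levels by 16-cytokine plate array in hippocampus of rats given 28 days of GWI-related chemicals plus restraint stress, treated after a 4-month interval, tissue harvested after 8 weeks.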", "data": [{"smiles": "Nc1cccc2c(=O)[nH][nH]c(=O)c12", "note": "[MSL, 5-amino-2,3-dihydro-1,4-phthalazinedione, monosodium salt]", "values": [{"measurement": "FGF-beta Mean ± S.E.M.", "setting": "[1]; [6]", "value": "0.17 ± 0.05"}, {"measurement": "IFN-gamma Mean ± S.E.M.", "setting": "[1]; [6]", "value": "0.19 ± 0.05"}, {"measurement": "IL-1alpha Mean ± S.E.M.", "setting": "[1]; [6]", "value": "0.17 ± 0.05"}, {"measurement": "IL-1 beta Mean ± S.E.M.", "setting": "[1]; [6]", "value": "0.38 ± 0.05"}, {"measurement": "IL-5 Mean ± S.E.M.", "setting": "[1]; [6]", "value": "0.19 ± 0.05"}, {"measurement": "IL-6 Mean ± S.E.M.", "setting": "[1]; [6]", "value": "0.23 ± 0.05"}, {"measurement": "IL-10 Mean ± S.E.M.", "setting": "[1]; [6]", "value": "0.085 ± 0.02"}, {"measurement": "IL-15 Mean ± S.E.M.", "setting": "[1]; [6]", "value": "0.13 ± 0.05"}, {"measurement": "LEPTIN Mean ± S.E.M.", "setting": "[1]; [6]", "value": "0.40 ± 0.05"}, {"measurement": "MCP-1 Mean ± S.E.M.", "setting": "[1]; [6]", "value": "0.09 ± 0.05"}, {"measurement": "MIP-1 alpha Mean ± S.E.M.", "setting": "[1]; [6]", "value": "0.06 ± 0.05"}, {"measurement": "Rantes (CCL5) Mean ± S.E.M.", "setting": "[1]; [6]", "value": "0.15 ± 0.05"}, {"measurement": "SCF Mean ± S.E.M.", "setting": "[1]; [6]", "value": "0.32 ± 0.05"}, {"measurement": "TNF-alpha Mean ± S.E.M.", "setting": "[1]; [6]", "value": "0.15 ± 0.02"}, {"measurement": "VEGF Mean ± S.E.M.", "setting": "[1]; [6]", "value": "0.19 ± 0.05"}, {"measurement": "FGF-beta", "setting": "[1]; [7]", "value": "0.21 ± 0.03"}, {"measurement": "IFN-gamma", "setting": "[1]; [7]", "value": "0.23 ± 0.03"}, {"measurement": "IL-1alpha", "setting": "[1]; [7]", "value": "0.21 ± 0.03"}, {"measurement": "IL-1 beta", "setting": "[1]; [7]", "value": "0.42 ± 0.06"}, {"measurement": "IL-5", "setting": "[1]; [7]", "value": "0.22 ± 0.03"}, {"measurement": "IL-6", "setting": "[1]; [7]", "value": "0.28 ± 0.02"}, {"measurement": "IL-10", "setting": "[1]; [7]", "value": "0.103 ± 0.02"}, {"measurement": "IL-15", "setting": "[1]; [7]", "value": "0.14 ± 0.02"}, {"measurement": "LEPTIN", "setting": "[1]; [7]", "value": "0.50 ± 0.09"}, {"measurement": "MCP-1", "setting": "[1]; [7]", "value": "0.13 ± 0.02"}, {"measurement": "MIP-1 alpha", "setting": "[1]; [7]", "value": "0.07 ± 0.01"}, {"measurement": "Rantes (CCL5)", "setting": "[1]; [7]", "value": "0.17 ± 0.03"}, {"measurement": "SCF", "setting": "[1]; [7]", "value": "0.36 ± 0.06"}, {"measurement": "TNF-alpha", "setting": "[1]; [7]", "value": "0.19 ± 0.03"}, {"measurement": "VEGF", "setting": "[1]; [7]", "value": "0.22 ± 0.03"}, {"measurement": "concentration of MIP-1α", "setting": "[1]; GWI rats, decreases not significant statistically", "value": "reduced the concentration of MIP-1α"}, {"measurement": "concentration of 16 cytokines between groups", "setting": "[1]; naive, GWI + VEH and GWI rats receiving different doses", "value": "no significant differences"}, {"measurement": "FGF-beta Mean ± S.E.M.", "setting": "[1]; [8]", "value": "0.18 ± 0.03"}, {"measurement": "IFN-gamma Mean ± S.E.M.", "setting": "[1]; [8]", "value": "0.28 ± 0.03"}, {"measurement": "IL-1alpha Mean ± S.E.M.", "setting": "[1]; [8]", "value": "0.17 ± 0.01"}, {"measurement": "IL-1 beta Mean ± S.E.M.", "setting": "[1]; [8]", "value": "0.39 ± 0.06"}, {"measurement": "IL-5 Mean ± S.E.M.", "setting": "[1]; [8]", "value": "0.19 ± 0.04"}, {"measurement": "IL-6 Mean ± S.E.M.", "setting": "[1]; [8]", "value": "0.24 ± 0.03"}, {"measurement": "IL-10 Mean ± S.E.M.", "setting": "[1]; [8]", "value": "0.086 ± 0.01"}, {"measurement": "IL-15 Mean ± S.E.M.", "setting": "[1]; [8]", "value": "0.11 ± 0.02"}, {"measurement": "LEPTIN Mean ± S.E.M.", "setting": "[1]; [8]", "value": "0.43 ± 0.11"}, {"measurement": "MCP-1 Mean ± S.E.M.", "setting": "[1]; [8]", "value": "0.10 ± 0.02"}, {"measurement": "MIP-1 alpha Mean ± S.E.M.", "setting": "[1]; [8]", "value": "0.08 ± 0.02"}, {"measurement": "Rantes (CCL5) Mean ± S.E.M.", "setting": "[1]; [8]", "value": "0.18 ± 0.02"}, {"measurement": "SCF Mean ± S.E.M.", "setting": "[1]; [8]", "value": "0.32 ± 0.07"}, {"measurement": "TNF-alpha Mean ± S.E.M.", "setting": "[1]; [8]", "value": "0.18 ± 0.02"}, {"measurement": "VEGF Mean ± S.E.M.", "setting": "[1]; [8]", "value": "0.21 ± 0.03"}, {"measurement": "pattern separation ability (exploration of novel vs familiar object on P2)", "setting": "[2]; 40 mg/kg oral gavage", "value": "remained impaired"}, {"measurement": "pattern separation ability (exploration of novel vs familiar object on P2)", "setting": "[2]; 80 mg/kg oral gavage", "value": "remained impaired"}, {"measurement": "pattern separation ability (exploration of novel vs familiar object on P2)", "setting": "[2]; 160 mg/kg oral gavage", "value": "displayed an ability for pattern separation"}, {"measurement": "total object exploration time between groups in Trial-3", "setting": "[2]; GWI rats, 40, 80 and 160 mg/Kg groups vs naive and VEH, one-way ANOVA", "value": "did not show ditierences between groups"}, {"measurement": "expression of 20 oxidative stress genes increased in GWI rats", "setting": "[3]; 80 mg/kg", "value": "normalized to control levels"}, {"measurement": "expression of 20 oxidative stress genes increased in GWI rats", "setting": "[3]; 160 mg/kg", "value": "normalized to control levels"}, {"measurement": "expression of 4 oxidative stress response genes (Prdx6, Sod2, Sqstm1, Srxn1)", "setting": "[3]; vs GWI rats receiving VEH", "value": "completely normalized"}, {"measurement": "preference for sucrose-containing water over regular water", "setting": "[4]; 40 mg/kg oral gavage", "value": "remained impaired"}, {"measurement": "preference for sucrose-containing water over regular water", "setting": "[4]; 80 mg/kg oral gavage", "value": "exhibited a clear preference for drinking sucrose-containing water over regular water"}, {"measurement": "preference for sucrose-containing water over regular water", "setting": "[4]; 160 mg/kg oral gavage", "value": "exhibited a clear preference for drinking sucrose-containing water over regular water"}, {"measurement": "total volume (normal water+sucrose-containing water) consumed", "setting": "[4]; all dose groups vs naive and VEH, one-way ANOVA", "value": "did not show differences between groups"}, {"measurement": "MDA concentration", "setting": "[5]; 40 mg/kg, p<0.05", "value": "higher concentration of MDA than naive control rats"}, {"measurement": "MDA concentration", "setting": "[5]; 160 mg/kg", "value": "reduced MDA concentration than GWI rats receiving VEH"}]}]}
